From patent publication US9101613B2, “Methods for treating neurological disease” (Neurim Pharmaceuticals (1991) Ltd., priority 2006, dated 2015)
pIC50, pKi: −log10 of the molar value. Like-named read-outs stand apart in the source and are kept apart here.

Tests used:
MT-3 receptor = biological target: T1, MT-3 receptor (Mesocricetus auratus, UniProt A0ABM2YAB8); assay: 125I-melatonin binding in hamster brain membranes, MT-3; details: for inhibition at 10 µM: read-out: MT-3 receptor binding % inhibition by 10 μM
T1 construct: from tissue; host or cells: hamster brain membranes
T1 sequence (A0ABM2YAB8 1-231): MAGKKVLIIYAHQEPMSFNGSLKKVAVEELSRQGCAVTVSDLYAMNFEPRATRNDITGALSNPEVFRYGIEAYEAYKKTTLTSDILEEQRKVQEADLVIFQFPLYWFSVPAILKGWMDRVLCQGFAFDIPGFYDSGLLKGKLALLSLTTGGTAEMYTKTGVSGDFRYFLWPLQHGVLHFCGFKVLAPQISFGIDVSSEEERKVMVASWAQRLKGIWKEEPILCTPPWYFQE
Method: Aliquots of suspended membranes of human recombinant CHP-K1 (Chinese hamster ovary) cells stably expressing human melatonin-1 or melatonin-2 (MT-1 or MT-2) receptors or of hamster brain (MT-3) were incubated at 25° C. with 0.05 nM ^125I-melatonin in buffer (25 mM HEPES, pH 7.4, 5 mM MgCl2, 1 mM CaCl2, 0.5% BSA) or with 0.1 nM for MT-3 alone or in the presence of 1 nM, 10 nM, 0.1 μM, 1 μM and 10 μM of test substances N-[2-(5-methoxy-indol-3-yl)-ethyl]-commenamide, N-[2-(5-methoxy-indol-3-yl)-ethyl]-comanilamide, N-[2-(5-methoxy-indol-3-yl)-ethyl]-coumalylamide, N-[2-(5-methoxy-indol-3-yl)-ethyl]-2-methoxy-commenamide, N-[2-(5-methoxy-indol-3-yl)-ethyl]-chelidonamide, O-[2-(5-methoxy-indol-3-yl)-ethyl]-comenic ester, N-[2-(5-methoxy-indol-3-yl)-ethyl]-2-Pyrone-6-carboxamide and N-[2-(2-bromo-5-methoxy-indol-3-yl)-ethyl]-coumalylamide for 3 hours for MT-1, 4 hours for MT-2 and 30 min for MT-3. The binding reaction was terminated and the membranes were washed with 4 ml of ice-cold HEPES buffer by vacuum filtration. Membranes were then collected, and the filters containing the bound ^125I-melatonin were assayed for the amount of radioactivity in a […]. Non-specific binding was evaluated using a reaction with 1 μM 6-chloromelatonin (MT-1 and MT-2) or 30 μM melatonin (MT-3).

5-HT2B receptor = biological target: T2, 5-HT2B receptor (Homo sapiens, UniProt P41595); assay: Serotonin receptor binding, [3H] LSD, CHO-K1 membranes
T2 construct: expressed in transfected cells; host or cells: CHO-K1
Method: (§1) Aliquots of suspended membranes of human recombinant CHO-K1 cells stably expressing human 5-HT1A, 5-HT2A, 5-HT1B, 5-HT2B, 5-HT2C, 5-HT4, 5-HT6 or 5-HT7 receptors were pre-incubated at 25° C. with 1.5 nM [^3H] 8-OH-DPAT (5-HT1A), 1.5 nM [^3H] Ketanserin (5-HT2A), 0.01 nM [^125I] Cyanopindolol (5-HT1B), 1 nM [^3H] Mesulergine (5-HT2c), 0.7 nM [^3H] GR-113808 (5-HT4) or at 37° C. 1.2 nM [^3H] LSD (5-HT2B, 5-HT6 and 5-HT7) in buffer (50 mM Tris-HCl, pH 7.7) alone or in the presence of 1 nM, 10 nM, 0.1 μM, 1 μM, and 10 μM of N-[2-(5-methoxy-indol-3-yl)-ethyl]-commenamide, N-[2-(5-methoxy-indol-3-yl)-ethyl]-coumalylamide, N-[2-(5-methoxy-indol-3-yl)-ethyl]-comanilamide, N-[2-(5-methoxy-indol-3-yl)-ethyl]-2-methoxy-commenamide or N-[2-(5-methoxy-indol-3-yl)-ethyl]-chelidonamide for 60 minutes. The binding reaction was terminated and washed with 4 ml ice-cold 50 mM Tris-HCl buffer by vacuum filtration. Membranes were then collected, and the filters containing the bound ligands were assayed for the amount of radioactivity in a b-counter. Non-specific binding was evaluated using a reaction with 10 μM metergoline (5-HT1A), 1 μM mianserin (5-HT2A and 5-HT2c) or 10 μM serotonin (5-HT1B, 5-HT2B, 5-HT4, 5-HT6 and 5-HT7).

3T3-L1 adipocytes = assay: 2-[3H]-deoxy-d-glucose uptake in FFA-treated 3T3-L1 adipocyte model; assay type: cell-based; details: Insulin 20 nM + FFA 300 μM (3 h) + substance 10 nM
Method: Adipocytes were glucose-starved for 1 h in Hepes-salt buffer containing 2% FFA-free BSA. FFA (free fatty acids) were then added to the cells at the indicated concentrations (300 μM) for the indicated times (3 h). 10 min before the end of the FFA treatment, the cells were stimulated with insulin (20 nM)/melatonin (10 nM)/test compounds (10 nM) at 37° C. 2-[^3H]-deoxy-d-glucose at 1 μCi/mL and 0.1 mM unlabeled 2-deoxyglucose in KRP-HEPES buffer was added and cells were incubated for 10 min at room temperature. Non-specific glucose uptake was measured by parallel incubations in the presence of 10 μM cytochalasin B, which blocks transporter-mediated glucose uptake, and was subtracted from total uptake in each assay. Cells were then washed three times with ice-cold phosphate buffered saline (PBS) and solubilized in 1M NaOH for 20 minutes. The sample was then counted using a scintillation counter. 2-[^3H]-deoxy-d-glucose uptake was assayed in triplicates for each condition in at least 3 independent experiments. 2-[^3H]-deoxy-d-glucose uptake (counts per minute-cpm) are presented as mean+SE of triplicates in a representative experiment or results of three independent experiments. ANOVA test was used with significance of P<0.05 (Table 7).

5-HT7 receptor = biological target: T3, 5-HT7 receptor (Homo sapiens, UniProt P34969); assay: Serotonin receptor binding, [3H] LSD, CHO-K1 membranes
T3 construct: expressed in transfected cells; host or cells: CHO-K1
Method: as §1

CD1 mice = assay: Motimeter assay (motor activity and rearing); assay type: in vivo; details: 100 mg/kg i.p.; for effect on motor activity and rearing: 30-35 min and 60-65 min after treatment
Method: Mice were starved for 16 hrs before treatment. Male CD1 mice, weighing 25-30 g, were treated intraperitoneally with melatonin, N-[2-(5-methoxy-indol-3-yl)-ethyl]-comanilamide or N-[2-(5-methoxy-indol-3-yl)-ethyl]-commenamide in a dose of 100 mg/kg. The horizontal (i.e. locomotion) and vertical (i.e. rearing) movements were measured for 5 minutes two times, 30 and 60 min after treatment. Eight mice/group were used. The 4-channel activity meter is a square-shaped frame containing transparent infra-red permeable acrylic cages. The frames feature two pairs of light-beam strips for measuring horizontal movements, and two pairs for measuring rearing. Each strip is equipped with 16 infra-red sensors.

[1] = 0.1 nM 125I-melatonin, 30 min, read-out: MT-3 receptor binding IC50
[2] = 0.1 nM 125I-melatonin, 30 min, read-out: MT-3 receptor binding KI

T2 sequence (P41595 whole entry): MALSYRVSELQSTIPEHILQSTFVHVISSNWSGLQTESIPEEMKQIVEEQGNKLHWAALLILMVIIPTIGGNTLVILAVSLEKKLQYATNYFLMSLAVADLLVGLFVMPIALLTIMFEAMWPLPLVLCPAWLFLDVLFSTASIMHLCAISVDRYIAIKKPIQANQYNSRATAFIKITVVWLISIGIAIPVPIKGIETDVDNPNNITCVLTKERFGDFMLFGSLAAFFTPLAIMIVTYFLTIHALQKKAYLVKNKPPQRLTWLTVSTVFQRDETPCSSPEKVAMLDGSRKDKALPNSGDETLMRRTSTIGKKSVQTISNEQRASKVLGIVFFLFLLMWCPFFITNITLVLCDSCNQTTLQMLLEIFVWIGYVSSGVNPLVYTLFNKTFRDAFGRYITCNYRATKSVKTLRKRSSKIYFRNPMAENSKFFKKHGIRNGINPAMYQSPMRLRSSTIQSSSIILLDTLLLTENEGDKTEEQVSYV
T3 sequence (P34969 whole entry): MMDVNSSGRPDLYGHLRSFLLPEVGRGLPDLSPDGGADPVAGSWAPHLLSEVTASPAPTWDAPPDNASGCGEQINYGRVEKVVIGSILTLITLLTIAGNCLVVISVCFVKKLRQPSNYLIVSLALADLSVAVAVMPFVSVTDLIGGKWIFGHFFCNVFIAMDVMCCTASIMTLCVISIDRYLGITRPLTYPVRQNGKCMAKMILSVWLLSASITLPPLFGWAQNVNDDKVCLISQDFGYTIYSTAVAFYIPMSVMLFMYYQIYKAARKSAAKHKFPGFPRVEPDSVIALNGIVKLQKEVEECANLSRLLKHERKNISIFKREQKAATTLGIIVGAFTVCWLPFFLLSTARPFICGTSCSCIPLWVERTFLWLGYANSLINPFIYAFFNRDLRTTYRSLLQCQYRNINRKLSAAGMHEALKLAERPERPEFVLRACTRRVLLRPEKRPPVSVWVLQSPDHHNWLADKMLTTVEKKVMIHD

affinity to 5-HT7 (5-HT7 receptor)	pIC50 (5-HT7 receptor; read-out: 5-HT7 IC50)	pKi (5-HT7 receptor; read-out: 5-HT7 KI)	SMILES	pIC50 (MT-3 receptor; [1])	pKi (MT-3 receptor; [2])	inhibition at 10 µM (MT-3 receptor; 10 μM, 0.1 nM 125I-melatonin)	pIC50 (5-HT2B receptor; read-out: 5-HT2B IC50)	pKi (5-HT2B receptor; read-out: 5-HT2B KI)	2-[3H]-deoxy-d-glucose uptake (cpm) (3T3-L1 adipocytes)	affinity to 5-HT2B (5-HT2B receptor)	affinity to MT-3 (MT-3 receptor)	effect on motor activity and rearing (CD1 mice)	other results
–	–	–	COc1ccc2[nH]cc(CCNC(=O)c3cc(=O)cc(C(=O)O)o3)c2c1 [N-[2-5-methoxy-indol-3-yl)-ethyl]-chelidonamide]	5.66	5.66	86%	5.68	5.88	1407 cpm	–	–	–	–
moderate affinity	6.13	6.38	COc1ccc2[nH]cc(CCNC(=O)c3cc(=O)c(OC)co3)c2c1 [N-[2-(5-methoxy-indol-3-yl)-ethyl]-2-methoxy-commenamide]	6.64	6.66	99%	5.75	5.95	1522 cpm	moderate affinity	–	–	–
–	–	–	COc1ccc2[nH]cc(CCNC(=O)c3cc(=O)cco3)c2c1 [N-[2-(5-methoxy-indol-3-yl)-ethyl]-comanilamide]	6.51	6.52	100%	5.17	5.36	1492 cpm	–	high affinity	did not change significantly the motor activity and rearing	–
moderate affinity	6.18	6.42	COc1ccc2[nH]cc(CCNC(=O)c3ccc(=O)oc3)c2c1 [N-[2-(5-methoxy-indol-3-yl)-ethyl]-coumalylamide]	6.01	6.02	95%	5.52	5.72	1494 cpm	–	–	significantly decreased both the motor activity and rearing	motor activity (horizontal movement) changes (%) 30 min (CD1 mice; 30 min, vs vehicle): −63.1%; motor activity (horizontal movement) 30 min Means ± SE (CD1 mice; 30 min after treatment, 5 min measurement): 158.8 ± 37.0; motor activity (horizontal movement) changes (%) 60 min (CD1 mice; 60 min, vs vehicle): −80.3%; motor activity (horizontal movement) 60 min Means ± SE (CD1 mice; 60 min after treatment, 5 min measurement): 62.3 ± 16.6

SMILES	affinity to 5-HT7 (5-HT7 receptor)	pIC50 (5-HT7 receptor; read-out: 5-HT7 IC50)	pKi (5-HT7 receptor; read-out: 5-HT7 KI)	pIC50 (MT-3 receptor; [1])	pKi (MT-3 receptor; [2])	inhibition at 10 µM (MT-3 receptor; 10 μM, 0.1 nM 125I-melatonin)	pIC50 (5-HT2B receptor; read-out: 5-HT2B IC50)	pKi (5-HT2B receptor; read-out: 5-HT2B KI)	2-[3H]-deoxy-d-glucose uptake (cpm) (3T3-L1 adipocytes)	affinity to 5-HT2B (5-HT2B receptor)	affinity to MT-3 (MT-3 receptor)	effect on motor activity and rearing (CD1 mice)	other results
COc1ccc2[nH]cc(CCNC(=O)c3cc(=O)c(O)co3)c2c1 [N-[2-(5-methoxy-indol-3-yl)-ethyl]-commenamide]	moderate affinity	–	–	–	–	–	–	–	1530 cpm	moderate affinity	high affinity	did not change significantly the motor activity and rearing	pIC50 (MT-3 receptor): 6.10; pKi (MT-3 receptor): 6.11; inhibition at 10 µM (MT-3 receptor): 98%; pIC50 (5-HT7 receptor): 6.64; pKi (5-HT7 receptor): 6.88; pIC50 (5-HT2B receptor): 5.65; pKi (5-HT2B receptor): 5.84
